{
  "source": "the kinase profiling compilation of Christmann-Franck et al. (2016)",
  "key": {"[1]": {"biological_target": "AURKB (human) (UniProt Q96GD4)"}, "[2]": {"biological_target": "BTK (human) (UniProt Q06187)"}, "[3]": {"biological_target": "CHEK2 (human) (UniProt O96017)"}, "[4]": {"biological_target": "CSNK2A1 (human) (UniProt P68400)"}, "[5]": {"biological_target": "DYRK1A (human) (UniProt Q13627)"}, "[6]": {"biological_target": "DYRK2 (human) (UniProt Q92630)", "sequence (Q92630 whole entry, looked up)": "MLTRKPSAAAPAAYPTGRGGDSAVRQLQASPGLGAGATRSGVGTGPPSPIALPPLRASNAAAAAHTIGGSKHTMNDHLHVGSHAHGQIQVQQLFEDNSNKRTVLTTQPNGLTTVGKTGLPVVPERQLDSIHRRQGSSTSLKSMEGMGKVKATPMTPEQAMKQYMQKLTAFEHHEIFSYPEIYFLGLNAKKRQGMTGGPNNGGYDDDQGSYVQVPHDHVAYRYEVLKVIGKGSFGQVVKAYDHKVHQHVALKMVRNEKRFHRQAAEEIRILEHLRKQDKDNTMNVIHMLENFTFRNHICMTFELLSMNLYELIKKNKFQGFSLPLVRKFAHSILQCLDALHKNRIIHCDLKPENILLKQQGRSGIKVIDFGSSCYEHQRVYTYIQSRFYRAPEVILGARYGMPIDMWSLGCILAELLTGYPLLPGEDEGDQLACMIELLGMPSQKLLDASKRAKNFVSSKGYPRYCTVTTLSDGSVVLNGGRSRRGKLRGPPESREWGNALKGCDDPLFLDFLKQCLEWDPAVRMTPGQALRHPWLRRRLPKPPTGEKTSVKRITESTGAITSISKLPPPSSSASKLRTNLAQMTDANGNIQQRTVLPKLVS"}, "[7]": {"biological_target": "FGFR1 (human) (UniProt P11362)"}, "[8]": {"biological_target": "IKBKB (human) (UniProt O14920)"}, "[9]": {"biological_target": "INSRR (human) (UniProt P14616)", "sequence (P14616 whole entry, looked up)": "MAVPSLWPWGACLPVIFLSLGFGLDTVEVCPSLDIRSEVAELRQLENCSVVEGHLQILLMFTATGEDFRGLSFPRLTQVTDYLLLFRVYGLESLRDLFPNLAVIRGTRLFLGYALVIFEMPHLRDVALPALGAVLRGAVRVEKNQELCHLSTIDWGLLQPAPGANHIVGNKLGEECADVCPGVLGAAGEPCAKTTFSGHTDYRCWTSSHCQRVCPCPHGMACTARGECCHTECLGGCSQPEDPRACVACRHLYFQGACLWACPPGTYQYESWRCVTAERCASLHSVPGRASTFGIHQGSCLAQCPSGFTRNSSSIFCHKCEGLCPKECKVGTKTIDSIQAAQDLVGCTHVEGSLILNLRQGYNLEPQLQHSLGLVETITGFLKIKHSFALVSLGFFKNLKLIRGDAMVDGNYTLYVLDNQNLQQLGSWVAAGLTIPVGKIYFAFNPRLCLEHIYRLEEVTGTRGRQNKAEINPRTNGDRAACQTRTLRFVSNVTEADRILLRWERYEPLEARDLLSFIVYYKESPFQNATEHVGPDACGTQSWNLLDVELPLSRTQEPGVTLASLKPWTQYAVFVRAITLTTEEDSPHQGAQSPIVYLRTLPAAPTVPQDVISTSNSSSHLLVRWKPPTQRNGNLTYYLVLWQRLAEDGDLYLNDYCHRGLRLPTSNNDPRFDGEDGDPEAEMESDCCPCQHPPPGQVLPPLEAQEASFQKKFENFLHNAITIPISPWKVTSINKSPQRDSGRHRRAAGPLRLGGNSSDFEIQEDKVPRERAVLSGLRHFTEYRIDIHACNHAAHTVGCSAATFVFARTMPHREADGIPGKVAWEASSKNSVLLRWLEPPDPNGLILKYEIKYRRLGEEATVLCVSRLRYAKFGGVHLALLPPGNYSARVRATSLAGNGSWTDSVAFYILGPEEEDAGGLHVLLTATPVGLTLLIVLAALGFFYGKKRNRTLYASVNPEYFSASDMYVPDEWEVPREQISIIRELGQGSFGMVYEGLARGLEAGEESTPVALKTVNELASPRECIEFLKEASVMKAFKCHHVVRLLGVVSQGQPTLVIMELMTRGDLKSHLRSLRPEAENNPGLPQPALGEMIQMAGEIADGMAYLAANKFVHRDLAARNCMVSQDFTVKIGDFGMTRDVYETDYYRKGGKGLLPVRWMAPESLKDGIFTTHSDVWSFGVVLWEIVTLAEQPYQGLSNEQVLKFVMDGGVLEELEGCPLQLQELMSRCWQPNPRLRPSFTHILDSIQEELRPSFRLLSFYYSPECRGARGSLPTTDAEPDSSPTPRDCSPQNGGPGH"}, "[10]": {"biological_target": "MAP2K1 (human) (UniProt Q02750)", "sequence (Q02750 whole entry, looked up)": "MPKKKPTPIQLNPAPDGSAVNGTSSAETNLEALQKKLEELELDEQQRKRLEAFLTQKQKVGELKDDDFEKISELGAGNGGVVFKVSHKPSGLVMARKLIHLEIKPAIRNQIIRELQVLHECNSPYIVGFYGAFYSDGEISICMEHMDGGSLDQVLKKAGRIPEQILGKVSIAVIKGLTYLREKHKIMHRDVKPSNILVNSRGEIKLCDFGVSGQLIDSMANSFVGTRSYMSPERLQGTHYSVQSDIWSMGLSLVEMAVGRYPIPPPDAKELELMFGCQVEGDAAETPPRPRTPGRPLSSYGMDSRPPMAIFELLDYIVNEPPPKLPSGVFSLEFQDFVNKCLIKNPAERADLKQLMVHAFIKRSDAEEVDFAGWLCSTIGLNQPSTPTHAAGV"}, "[11]": {"biological_target": "MAPK13 (human) (UniProt O15264)", "sequence (O15264 whole entry, looked up)": "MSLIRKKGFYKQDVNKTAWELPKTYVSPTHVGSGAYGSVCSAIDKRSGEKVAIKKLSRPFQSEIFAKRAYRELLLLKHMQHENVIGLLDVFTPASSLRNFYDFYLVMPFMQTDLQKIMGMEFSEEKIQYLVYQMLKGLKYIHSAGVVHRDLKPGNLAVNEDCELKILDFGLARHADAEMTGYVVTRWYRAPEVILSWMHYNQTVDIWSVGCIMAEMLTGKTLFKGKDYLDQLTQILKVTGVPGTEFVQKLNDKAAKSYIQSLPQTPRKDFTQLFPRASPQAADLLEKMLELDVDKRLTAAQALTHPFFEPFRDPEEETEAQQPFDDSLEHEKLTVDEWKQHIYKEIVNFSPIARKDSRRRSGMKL"}, "[12]": {"biological_target": "MAPK14 (human) (UniProt Q16539)", "sequence (Q16539 whole entry, looked up)": "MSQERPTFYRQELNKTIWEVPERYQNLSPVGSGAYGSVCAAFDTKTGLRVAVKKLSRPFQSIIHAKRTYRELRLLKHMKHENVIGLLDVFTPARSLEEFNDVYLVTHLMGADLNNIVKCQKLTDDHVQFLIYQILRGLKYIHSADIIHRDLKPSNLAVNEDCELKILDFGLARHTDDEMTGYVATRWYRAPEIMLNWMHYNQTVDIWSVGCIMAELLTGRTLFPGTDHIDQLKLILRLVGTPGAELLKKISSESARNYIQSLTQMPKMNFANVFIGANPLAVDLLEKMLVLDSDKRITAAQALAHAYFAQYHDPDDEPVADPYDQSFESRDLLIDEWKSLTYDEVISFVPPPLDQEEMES"}, "[13]": {"biological_target": "MAPK3 (human) (UniProt P27361)"}, "[14]": {"biological_target": "MAPK8 (human) (UniProt P45983)"}, "[15]": {"biological_target": "MAPKAPK5 (human) (UniProt Q8IW41)"}, "[16]": {"biological_target": "MKNK2 (human) (UniProt Q9HBH9)"}, "[17]": {"biological_target": "MST4 (human) (UniProt Q9P289)"}, "[18]": {"biological_target": "NEK6 (human) (UniProt Q9HC98)"}, "[19]": {"biological_target": "PDPK1 (human) (UniProt O15530)", "sequence (O15530 whole entry, looked up)": "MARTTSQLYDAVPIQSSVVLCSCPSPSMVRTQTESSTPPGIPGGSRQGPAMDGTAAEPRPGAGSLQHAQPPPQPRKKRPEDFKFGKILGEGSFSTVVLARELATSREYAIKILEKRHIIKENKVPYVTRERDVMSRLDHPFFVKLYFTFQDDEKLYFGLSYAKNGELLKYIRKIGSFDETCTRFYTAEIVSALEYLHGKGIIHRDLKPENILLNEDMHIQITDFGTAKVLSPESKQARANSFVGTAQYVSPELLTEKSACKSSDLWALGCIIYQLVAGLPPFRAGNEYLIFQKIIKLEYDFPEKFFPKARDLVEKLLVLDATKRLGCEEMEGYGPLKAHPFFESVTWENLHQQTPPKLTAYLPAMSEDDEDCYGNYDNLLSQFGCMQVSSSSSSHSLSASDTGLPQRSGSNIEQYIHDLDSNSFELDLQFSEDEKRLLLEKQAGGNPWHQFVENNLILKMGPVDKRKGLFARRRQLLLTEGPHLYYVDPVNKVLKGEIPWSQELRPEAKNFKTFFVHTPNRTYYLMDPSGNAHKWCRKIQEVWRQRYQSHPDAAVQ"}, "[20]": {"biological_target": "PKN2 (human) (UniProt Q16513)"}, "[21]": {"test_system": "PRKAA1 or PRKAA2 (rat)", "settings": "accession and sequence are those of the human protein"}, "[22]": {"biological_target": "RPS6KA3 KD1 KD2 (human) (UniProt P51812)", "sequence (P51812 whole entry, looked up)": "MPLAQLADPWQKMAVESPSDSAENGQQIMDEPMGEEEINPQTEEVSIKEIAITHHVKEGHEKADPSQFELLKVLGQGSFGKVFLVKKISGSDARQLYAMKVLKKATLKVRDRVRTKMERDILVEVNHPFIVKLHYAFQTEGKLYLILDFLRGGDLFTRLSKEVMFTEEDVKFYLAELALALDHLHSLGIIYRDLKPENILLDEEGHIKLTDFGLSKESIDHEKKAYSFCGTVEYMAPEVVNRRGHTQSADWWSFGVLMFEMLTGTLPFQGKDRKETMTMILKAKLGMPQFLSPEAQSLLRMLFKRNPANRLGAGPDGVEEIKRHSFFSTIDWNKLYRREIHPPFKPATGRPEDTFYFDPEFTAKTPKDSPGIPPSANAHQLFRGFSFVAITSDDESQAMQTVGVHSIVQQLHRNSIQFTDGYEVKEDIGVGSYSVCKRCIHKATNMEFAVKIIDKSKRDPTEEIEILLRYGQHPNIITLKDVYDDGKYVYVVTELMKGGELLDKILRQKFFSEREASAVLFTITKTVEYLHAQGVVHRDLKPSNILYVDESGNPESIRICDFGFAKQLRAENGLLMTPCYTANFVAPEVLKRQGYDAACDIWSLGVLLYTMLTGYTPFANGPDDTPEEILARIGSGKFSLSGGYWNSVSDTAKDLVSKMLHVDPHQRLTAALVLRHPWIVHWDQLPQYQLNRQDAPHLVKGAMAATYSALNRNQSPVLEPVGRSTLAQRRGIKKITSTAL"}, "[23]": {"biological_target": "YES1 (human) (UniProt P07947)", "sequence (P07947 whole entry, looked up)": "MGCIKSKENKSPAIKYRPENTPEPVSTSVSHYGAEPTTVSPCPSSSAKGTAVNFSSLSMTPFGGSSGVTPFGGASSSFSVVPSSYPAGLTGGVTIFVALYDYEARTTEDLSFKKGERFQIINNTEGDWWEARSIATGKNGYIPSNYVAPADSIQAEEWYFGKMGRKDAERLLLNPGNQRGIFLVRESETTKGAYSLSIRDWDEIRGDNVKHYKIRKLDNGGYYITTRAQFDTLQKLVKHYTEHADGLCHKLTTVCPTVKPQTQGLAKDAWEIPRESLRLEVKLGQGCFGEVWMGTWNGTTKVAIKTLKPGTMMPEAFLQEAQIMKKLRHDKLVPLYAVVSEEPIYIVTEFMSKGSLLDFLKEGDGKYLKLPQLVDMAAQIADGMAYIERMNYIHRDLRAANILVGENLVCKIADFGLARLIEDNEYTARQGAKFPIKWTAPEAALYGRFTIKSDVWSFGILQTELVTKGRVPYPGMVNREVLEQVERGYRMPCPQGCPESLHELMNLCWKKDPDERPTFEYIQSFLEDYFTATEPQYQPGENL"}, "[24]": {"test_system": "BRAF (human), P15056 [V600E]", "experiment": "KINOMEscan competition binding", "settings": "compound 10.0 µM"}, "[25]": {"biological_target": "CAMK2A (human) (UniProt Q9UQM7)", "experiment": "KINOMEscan competition binding", "settings": "compound 10.0 µM"}, "[26]": {"biological_target": "CDK16 (human) (UniProt Q00536)", "experiment": "KINOMEscan competition binding", "settings": "compound 10.0 µM"}, "[27]": {"biological_target": "CSK (human) (UniProt P41240)", "experiment": "KINOMEscan competition binding", "settings": "compound 10.0 µM"}, "[28]": {"biological_target": "EIF2AK1 (human) (UniProt Q9BQI3)", "experiment": "KINOMEscan competition binding", "settings": "compound 10.0 µM"}, "[29]": {"biological_target": "JAK1 JH2 pseudokinase (human) (UniProt P23458)", "experiment": "KINOMEscan competition binding", "settings": "compound 10.0 µM"}, "[30]": {"test_system": "KIT (human), P10721 [L576P]", "experiment": "KINOMEscan competition binding", "settings": "compound 10.0 µM"}, "[31]": {"biological_target": "NIM1 (human) (UniProt Q8IY84)", "experiment": "KINOMEscan competition binding", "settings": "compound 10.0 µM"}, "[32]": {"biological_target": "PHKG1 (human) (UniProt Q16816)", "experiment": "KINOMEscan competition binding", "settings": "compound 10.0 µM"}, "[33]": {"biological_target": "PI4KB (human) (UniProt Q9UBF8)", "experiment": "KINOMEscan competition binding", "settings": "compound 10.0 µM"}, "[34]": {"biological_target": "PRKCE (human) (UniProt Q02156)", "experiment": "KINOMEscan competition binding", "settings": "compound 10.0 µM"}, "[35]": {"biological_target": "RIPK4 (human) (UniProt P57078)", "experiment": "KINOMEscan competition binding", "settings": "compound 10.0 µM"}, "[36]": {"biological_target": "TLK2 (human) (UniProt Q86UE8)", "experiment": "KINOMEscan competition binding", "settings": "compound 10.0 µM"}},
  "note": "Where “and” joins values, the source holds several entries; their conditions need not be identical. Equal entries are not always repeated.",
  "data": [
    {"smiles": "CC(C)n1nc(-c2cc3cc(O)ccc3[nH]2)c2c(N)ncnc21", "values": [
      {"measurement": "per cent of control", "setting": "[1]; compound 1.0 µM", "value": 78, "unit": "%"},
      {"measurement": "per cent of control", "setting": "[1]; compound 10.0 µM", "value": 27, "unit": "%"},
      {"measurement": "per cent of control", "setting": "[2]; compound 1.0 µM", "value": 20, "unit": "%"},
      {"measurement": "per cent of control", "setting": "[2]; compound 10.0 µM", "value": 5, "unit": "%"},
      {"measurement": "per cent of control", "setting": "[3]; compound 1.0 µM", "value": 31, "unit": "%"},
      {"measurement": "per cent of control", "setting": "[3]; compound 10.0 µM", "value": 2, "unit": "%"},
      {"measurement": "per cent of control", "setting": "[4]; compound 1.0 µM", "value": 72, "unit": "%"},
      {"measurement": "per cent of control", "setting": "[4]; compound 10.0 µM", "value": 40, "unit": "%"},
      {"measurement": "per cent of control", "setting": "[5]; compound 1.0 µM", "value": 84, "unit": "%"},
      {"measurement": "per cent of control", "setting": "[5]; compound 10.0 µM", "value": 55, "unit": "%"},
      {"measurement": "per cent of control", "setting": "[6]; compound 1.0 µM", "value": 17, "unit": "%"},
      {"measurement": "per cent of control", "setting": "[6]; compound 10.0 µM", "value": 7, "unit": "%"},
      {"measurement": "per cent of control", "setting": "[7]; compound 1.0 µM", "value": 14, "unit": "%"},
      {"measurement": "per cent of control", "setting": "[7]; compound 10.0 µM", "value": 2, "unit": "%"},
      {"measurement": "per cent of control", "setting": "[8]; compound 1.0 µM", "value": 85, "unit": "%"},
      {"measurement": "per cent of control", "setting": "[8]; compound 10.0 µM", "value": 84, "unit": "%"},
      {"measurement": "per cent of control", "setting": "[9]; compound 1.0 µM", "value": 47, "unit": "%"},
      {"measurement": "per cent of control", "setting": "[9]; compound 10.0 µM", "value": 29, "unit": "%"},
      {"measurement": "per cent of control", "setting": "[10]; compound 1.0 µM", "value": 25, "unit": "%"},
      {"measurement": "per cent of control", "setting": "[10]; compound 10.0 µM", "value": 10, "unit": "%"},
      {"measurement": "per cent of control", "setting": "[11]; compound 1.0 µM", "value": 97, "unit": "%"},
      {"measurement": "per cent of control", "setting": "[11]; compound 10.0 µM", "value": 73, "unit": "%"},
      {"measurement": "per cent of control", "setting": "[12]; compound 1.0 µM", "value": 95, "unit": "%"},
      {"measurement": "per cent of control", "setting": "[12]; compound 10.0 µM", "value": 90, "unit": "%"},
      {"measurement": "per cent of control", "setting": "[13]; compound 1.0 µM", "value": 88, "unit": "%"},
      {"measurement": "per cent of control", "setting": "[13]; compound 10.0 µM", "value": 81, "unit": "%"},
      {"measurement": "per cent of control", "setting": "[14]; compound 1.0 µM", "value": 94, "unit": "%"},
      {"measurement": "per cent of control", "setting": "[14]; compound 10.0 µM", "value": 103, "unit": "%"},
      {"measurement": "per cent of control", "setting": "[15]; compound 1.0 µM", "value": 97, "unit": "%"},
      {"measurement": "per cent of control", "setting": "[15]; compound 10.0 µM", "value": 92, "unit": "%"},
      {"measurement": "per cent of control", "setting": "[16]; compound 1.0 µM", "value": 86, "unit": "%"},
      {"measurement": "per cent of control", "setting": "[16]; compound 10.0 µM", "value": 42, "unit": "%"},
      {"measurement": "per cent of control", "setting": "[17]; compound 1.0 µM", "value": 42, "unit": "%"},
      {"measurement": "per cent of control", "setting": "[17]; compound 10.0 µM", "value": 13, "unit": "%"},
      {"measurement": "per cent of control", "setting": "[18]; compound 1.0 µM", "value": 99, "unit": "%"},
      {"measurement": "per cent of control", "setting": "[18]; compound 10.0 µM", "value": 96, "unit": "%"},
      {"measurement": "per cent of control", "setting": "[19]; compound 1.0 µM", "value": "83% and 93%"},
      {"measurement": "per cent of control", "setting": "[19]; compound 10.0 µM", "value": "60% and 71%"},
      {"measurement": "per cent of control", "setting": "[20]; compound 1.0 µM", "value": 68, "unit": "%"},
      {"measurement": "per cent of control", "setting": "[20]; compound 10.0 µM", "value": 22, "unit": "%"},
      {"measurement": "per cent of control", "setting": "[21]; compound 1.0 µM", "value": 70, "unit": "%"},
      {"measurement": "per cent of control", "setting": "[21]; compound 10.0 µM", "value": 28, "unit": "%"},
      {"measurement": "per cent of control", "setting": "[22]; compound 1.0 µM", "value": 63, "unit": "%"},
      {"measurement": "per cent of control", "setting": "[22]; compound 10.0 µM", "value": 16, "unit": "%"},
      {"measurement": "per cent of control", "setting": "[23]; compound 1.0 µM", "value": -2, "unit": "%"},
      {"measurement": "per cent of control", "setting": "[23]; compound 10.0 µM", "value": -8, "unit": "%"},
      {"measurement": "kinase still bound, per cent of control", "setting": "[24]", "value": 4.4, "unit": "%"},
      {"measurement": "kinase still bound, per cent of control", "setting": "[25]", "value": 53, "unit": "%"},
      {"measurement": "per cent of control", "setting": "[26]", "value": 98, "unit": "%"},
      {"measurement": "kinase still bound, per cent of control", "setting": "[27]", "value": 15, "unit": "%"},
      {"measurement": "kinase still bound, per cent of control", "setting": "[28]", "value": 93, "unit": "%"},
      {"measurement": "kinase still bound, per cent of control", "setting": "[29]", "value": 0.2, "unit": "%"},
      {"measurement": "kinase still bound, per cent of control", "setting": "[30]", "value": 0.8, "unit": "%"},
      {"measurement": "kinase still bound, per cent of control", "setting": "[31]", "value": 88, "unit": "%"},
      {"measurement": "kinase still bound, per cent of control", "setting": "[32]", "value": 50, "unit": "%"},
      {"measurement": "kinase still bound, per cent of control", "setting": "[33]", "value": 2.4, "unit": "%"},
      {"measurement": "kinase still bound, per cent of control", "setting": "[34]", "value": 0, "unit": "%"},
      {"measurement": "kinase still bound, per cent of control", "setting": "[35]", "value": 6.3, "unit": "%"},
      {"measurement": "kinase still bound, per cent of control", "setting": "[36]", "value": 79, "unit": "%"}
    ]}
  ]
}
